Laboratory results reported in patent US20020127717A1, “Preparation of replicating macrophages and use in diagnosis and therapy” (priority 2000, published 2002).

Assays:
[1] = target: T1, Ulex Europaeus-I Agglutimin (UEA-I) (Ulex europaeus, UniProt P22972); experiment: FITC-UEA-I lectin binding to acetone-fixed cells, specificity control; details: 0.2M, room temperature, 30 minutes preincubation
T1 construct: purchased Vector Laboratories, Inc
T1 sequence (P22972 1-243): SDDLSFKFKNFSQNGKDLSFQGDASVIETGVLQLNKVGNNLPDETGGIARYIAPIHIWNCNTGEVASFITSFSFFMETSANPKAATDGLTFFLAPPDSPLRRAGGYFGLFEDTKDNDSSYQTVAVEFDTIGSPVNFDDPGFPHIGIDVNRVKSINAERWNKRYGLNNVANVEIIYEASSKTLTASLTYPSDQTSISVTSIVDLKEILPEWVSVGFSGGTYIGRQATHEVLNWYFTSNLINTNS
Protocol: FITC-conjugated Ulex Europaeus-I Agglutimin (UEA-I) (Vector Laboratories, Inc.) was incubated with acetone-fixed cells at 37° C. for 1 hour. The specificity of UEA-I, the lectin was determined by preincubating with 0.2M […] (Sigma), at room temperature for 30 minutes.

[2] = test system: human Kupffer cell isolates (KC-1, KC-2, KC-3); experiment: DNA synthesis assay (3H-Thymidine), stimulation by growth factors, Kupffer cell isolates; assay type: cell-based; design: key to Stimulation Index of Cultured Target cells: ratio: uptake with stimulatory agent / uptake in medium alone; details: for effect on DNA synthesis of KC isolates (in words): KC isolates grown 21 days in MCG medium, summary of Table 3
Protocol: (§1) DNA Synthesis Assay: DNA synthesis was determined by culturing the cells with ^3H-Thymidine as is standard in the art. The KC isolates used in the assay were at day 21 post liver isolation. The normal endothelial cells and foreskin fibroblasts were cultured in media consisting of RPMI-1640, fetal bovine serum 20% supplemented with specific factors as described in Nakamura S and Salahuddin SZ, Science 242: 426-430,1988. KC isolates were cultured as described above. Cells were harvested between 4 hours and 18 hours culture depending on the stimulatory agent used. A stimulation index was calculated by dividing radioactivity incorporated into cells with the stimulatory agent versus cells in culture medium alone.
(§2) Various growth factors were tested for their ability to stimulate growth of the human Kupffer cell isolates (KC-3) and other cell types. KC isolates used in this experiment were grown in culture for 21 days with MCG medium.

[3] = test system: Human Umbilical Vein Endothelial Cells (HUV-E); experiment: DNA synthesis assay (3H-Thymidine), stimulation by growth factors, HUVE; assay type: cell-based
Protocol: as §1
(§3) Cultured Cells: Human umbilical vein endothelial cells (HUV-E) were prepared as described in Nakamura et al, Science 1988. Bovine capillary endothelial cells (BCE) were a gift from Dr. Peter Biberfeld of Karolinska Institute, Stockholm, Sweden. Normal human foreskin fibroblasts (HSF) were obtained from the American Type Tissue Culture Collection (ATCC), Rockville, Md. (CRL-1635).
as §2

[4] = test system: Bovine Capillary Endothelial Cells (BCE); experiment: DNA synthesis assay (3H-Thymidine), stimulation by growth factors, BCE; assay type: cell-based
Protocol: as §1, §3, §2

[5] = test system: Human Foreskin Fibroblast Cells (HSF); experiment: DNA synthesis assay (3H-Thymidine), stimulation by growth factors, HSF; assay type: cell-based; details: HFS
Protocol: as §1, §3, §2

[6] = test system: human Kupffer cell isolates (KC-1, KC-2, KC-3); experiment: DNA synthesis assay (3H-Thymidine), stimulation by growth factors, Kupffer cell isolates; assay type: cell-based; design: key: ratio: uptake with stimulatory agent / uptake in medium alone

Row | Compound | binding of UEA-I after preincubating the lectin [1] | Stimulation Index of Cultured Target cells ([2]; KC-3, HC (hydrocortisone) +) | Stimulation Index of Cultured Target cells ([3]; HC (hydrocortisone) +) | Stimulation Index of Cultured Target cells ([4]; HC (hydrocortisone) +) | Stimulation Index of Cultured Target cells ([5]; HC (hydrocortisone) +) | Stimulation Index of Cultured Target cells ([6]; KC-1, HC (hydrocortisone) +) | Stimulation Index of Cultured Target cells ([6]; KC-2, HC (hydrocortisone) +) | effect on DNA synthesis of KC isolates (in words) [2] | Stimulation Index of Cultured Target cells ([2]; KC-3, HC (hydrocortisone) −) | Stimulation Index of Cultured Target cells ([3]; HC (hydrocortisone) −) | Stimulation Index of Cultured Target cells ([4]; HC (hydrocortisone) −) | Stimulation Index of Cultured Target cells ([5]; HC (hydrocortisone) −) | Stimulation Index of Cultured Target cells ([6]; KC-1, HC (hydrocortisone) −) | Stimulation Index of Cultured Target cells ([6]; KC-2, HC (hydrocortisone) −)
1 | O=C(CO)[C@H](O)[C@@H](O)[C@@H](O)CO [L-fructose] | No binding was observed | – | – | – | – | – | – | – | – | – | – | – | – | –
2 | TNFα | – | 1.2 | 1.0 | 1.2 | 0.8 | 0.8 | 0.9 | – | – | – | – | – | – | –
3 | BFGF: bFGF = Fibroblast Growth Factor β, Lot # 14765800, Boehringer Manheim | – | 1.2 | 15.4 | 2.3 | 1.9 | 0.5 | 0.5 | little to no effect | 1.2 | 35.4 | 6.2 | 2.2 | 0.8 | 0.6
4 | EGF: epidermal growth factor | – | 0.6 | – | 2.9 | 1.1 | 0.9 | 0.9 | little to no effect | 1.2 | 25.4 | 6.8 | 2.8 | 1.2 | 1.1
5 | PDGF | – | 1.1 | 20.2 | 1.8 | 1.5 | 1.1 | 1.2 | little to no effect | 1.4 | 10.0 | 4.4 | 1.4 | 1.2 | 1.4
